Results taken from paper PMC8834192 (2022).

How the values were obtained:
[1] = system: Z0 (DNA, aptamer) CTACCAGCTTTGAGGCTCGATCCAGCTTATTCAATTATACCAGCTTATTCAATTATACCAGC; assay: circular dichroism; conditions: Z0Z1 partial duplex; Z1 (S3) displaced; buffer not stated
[2] = system: Z0 (DNA, aptamer) CTACCAGCTTTGAGGCTCGATCCAGCTTATTCAATTATACCAGCTTATTCAATTATACCAGC; assay: UV-Vis absorbance at 260 nm of released strand; conditions: room temperature; partially complementary strand Z1 displaced from bead-bound Z0Z1

With `C[C@H]1CCCC(=O)CCC/C=C/c2cc(O)cc(O)c2C(=O)O1` the binding [1] was “yes” and the binding [2] was “yes”.
